Assay results as given in patent US7109193B2, “Tricyclic diazepines tocolytic oxytocin receptor antagonists” (Wyeth, priority 2001, dated 2006).

Key:
[1] = target: T1, human vasopressin V2 receptor subtype (Homo sapiens, UniProt P30518); assay: Vasopressin binding in Chinese Hamster Ovary cell membranes expressing human vasopressin V2 subtype receptors; conditions: 100 nM, CHO cell membranes, [3H]arginine vasopressin, values without parentheses
T1 construct: host or cells: CHO cells (pZeoSV vector)
T1 sequence (P30518 whole entry): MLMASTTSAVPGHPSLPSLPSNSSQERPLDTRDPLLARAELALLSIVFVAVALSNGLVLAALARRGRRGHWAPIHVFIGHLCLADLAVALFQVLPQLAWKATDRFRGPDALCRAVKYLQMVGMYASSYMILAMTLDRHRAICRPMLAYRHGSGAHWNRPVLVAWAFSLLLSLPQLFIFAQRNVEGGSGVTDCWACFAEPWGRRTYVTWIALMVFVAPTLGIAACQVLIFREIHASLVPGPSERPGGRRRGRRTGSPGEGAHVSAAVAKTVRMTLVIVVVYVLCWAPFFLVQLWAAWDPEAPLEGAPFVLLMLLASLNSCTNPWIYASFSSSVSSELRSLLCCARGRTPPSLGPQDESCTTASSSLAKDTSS
How it was run: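 Radioligand displacement on membranes from CHO cells stably expressing human V2 receptor, 25 to 50 μg protein/well, in 50 mM Tris-HCl pH 7.4 with MgCl2, BSA and protease inhibitors. [^3H]arginine vasopressin (8 nM working solution) incubated 60 min at room temperature; bound label measured by filtration and scintillation counting.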

SMILES	inhibition at 0.1 µM [1] [%]	melting point [°C]
O=C(c1ccc(-c2ccccc2)nc1)N1Cc2cccn2Cc2ccccc21 [Example 29, (6-Phenyl-pyridin-3-yl)-[10,11-dihydro-5H-pyrrolo[2,1-c][1,4]benzodiazepin-10-yl]methanone]	24	171 to 174
CCOc1ccccc1-c1cc(OC)c(C(=O)N2Cc3cccn3Cc3ccccc32)cc1Cl [Example 17, 10-{[6-Chloro-3-methoxy-2′-ethoxy[1,1′-biphenyl]-4-yl]carbonyl}-10,11-dihydro-5H-pyrrolo[2,1-c][1,4]benzodiazepine]	32	213 to 215
Cc1cc(C(=O)N2Cc3cccn3Cc3ccccc32)ccc1-c1ccncc1 [Example 31, [3-Methyl-4-(4-pyridinyl)phenyl]-[10,11-dihydro-5H-pyrrolo[2,1-c][1,4]benzodiazepin-10-yl]methanone]	31	208 to 210
Cc1cc(C(=O)N2Cc3cccn3Cc3ccccc32)cc(C)c1-n1c(C)ccc1C [Example 30, [4-(2,5-Dimethyl-1H-pyrrol-1-yl)-3,5-dimethyl-phenyl][10,11-dihydro-5H-pyrrolo[2,1-c][1,4]benzodiazepin-10-yl]methanone]	3	197 to 199
COc1cccc(-c2cc(OC)c(C(=O)N3Cc4ccc(C(=O)N[C@@H](Cc5c[nH]cn5)C(N)=O)n4Cc4ccccc43)cc2Cl)c1 [Example 287, N-[(1S)-2-Amino-1-(1H-imidazol-4-ylmethyl)-2-oxoethyl]-10-[(6-chloro-3,3′-dimethoxy[1,1′-biphenyl]-4-yl)carbonyl]-10,11-dihydro-5H-pyrrolo[2,1-c][1,4]benzodiazepine-3-carboxamide]	26	
COc1ccccc1-c1ccc(C(=O)N2Cc3ccc(C(=O)N[C@@H](Cc4c[nH]cn4)C(N)=O)n3Cc3ccccc32)cc1 [Example 285, N-[(1S)-2-Amino-1-(1H-imidazol-4-ylmethyl)-2-oxoethyl]-10-[(2′-methoxy[1,1′-biphenyl]-4-yl)carbonyl]-10,11-dihydro-5H-pyrrolo[2,1-c][1,4]benzodiazepine-3-carboxamide]	32	
Cc1cc(C(=O)N2Cc3ccc(C(=O)N[C@H]4CN5CCC4CC5)n3Cc3ccccc32)ccc1-c1ccccc1C(F)(F)F [Example 301, N-[(3R)-1-Azabicyclo[2.2.2]oct-3-yl]-10-{[2-methyl-2′-(trifluoromethyl)[1,1′-biphenyl]-4-yl]carbonyl}-10,11-dihydro-5H-pyrrolo[2,1-c][1,4]benzodiazepine-3-carboxamide]	9	
Cc1cc(C(=O)N2Cc3ccc(C(=O)n4ccnc4)n3Cc3ccccc32)ccc1-c1ccccc1C(F)(F)F [Example 294, 1H-Imidazol-1-yl(10-{[2-methyl-2′-(trifluoromethyl)[1,1′-biphenyl]-4-yl]carbonyl}-10,11-dihydro-5H-pyrrolo[2,1-c][1,4]benzodiazepin-3-yl)methanone]	-2	
COc1ccccc1-c1ccc(C(=O)N2Cc3ccc(C(=O)N[C@H]4CN5CCC4CC5)n3Cc3ccccc32)cc1C [Example 298, N-[(3R)-1-Azabicyclo[2.2.2]oct-3-yl]-10-[(2′-methoxy-2-methyl[1,1′-biphenyl]-4-yl)carbonyl]-10,11-dihydro-5H-pyrrolo[2,1-c][1,4]benzodiazepine-3-carboxamide]	29	
COc1cc(-c2ccccc2C)c(Cl)cc1C(=O)N1Cc2ccc(C(=O)NCCCN(C)C)n2Cc2ccccc21 [Example 78, 10-[(6-Chloro-3-methoxy-2′-methyl[1,1′-biphenyl]-4-yl)carbonyl]-N-[3-(dimethylamino)propyl]-10,11-dihydro-5H-pyrrolo[2,1-c][1,4]benzodiazepine-3-carboxamide]	14	

Second part, the compound after the results:

inhibition at 0.1 µM [1] [%]	melting point [°C]	SMILES
27		COc1cccc(-c2ccc(C(=O)N3Cc4ccc(C(=O)N5CCN(CCCN(C)C)CC5)n4Cc4ccccc43)cc2OC)c1 [Example 255, {10-[(2,3′-Dimethoxy[1,1′-biphenyl]-4-yl)carbonyl]-10,11-dihydro-5H-pyrrolo[2,1-c][1,4]benzodiazepin-3-yl}{4-[3-(dimethylamino)propyl]-1-piperazinyl}methanone]
19		COc1cccc(-c2ccc(C(=O)N3Cc4ccc(C(=O)N5CCCN(C)CC5)n4Cc4ccccc43)cc2C)c1 [Example 64, {10-[(3′-Methoxy-2-methyl[1,1′-biphenyl]-4-yl)carbonyl]-10,11-dihydro-5H-pyrrolo[2,1-c][1,4]benzodiazepin-3-yl}(4-methyl-1,4-diazepan-1-yl)methanone]
7		COc1cc(C(=O)N2Cc3ccc(C(=O)NCCN4CCCCC4)n3Cc3ccccc32)ccc1-n1c(C)ccc1C [Example 314, 10-[4-(2,5-Dimethyl-1H-pyrrol-1-yl)-3-methoxybenzoyl]-N-[2-(1-piperidinyl)ethyl]-10,11-dihydro-5H-pyrrolo[2,1-c][1,4]benzodiazepine-3-carboxamide]
21		COc1cccc(-c2cc(OC)c(C(=O)N3Cc4ccc(C(=O)N5CCN(CCCN(C)C)CC5)n4Cc4ccccc43)cc2Cl)c1 [Example 252, {10-[(6-Chloro-3,3′-dimethoxy[1,1′-biphenyl]-4-yl)carbonyl]-10,11-dihydro-5H-pyrrolo[2,1-c][1,4]benzodiazepin-3-yl}{4-[3-(dimethylamino)propyl]-1-piperazinyl}methanone]
22		COc1ccccc1-c1ccc(C(=O)N2Cc3ccc(C(=O)N4CCCN(C)CC4)n3Cc3ccccc32)cc1OC [Example 69, {10-[(2,2′-Dimethoxy[1,1′-biphenyl]-4-yl)carbonyl]-10,11-dihydro-5H-pyrrolo[2,1-c][1,4]benzodiazepin-3-yl}(4-methyl-1,4-diazepan-1-yl)methanone]
27		COc1ccccc1-c1ccc(C(=O)N2Cc3ccc(C(=O)N4CCN(C)CC4)n3Cc3ccccc32)cc1C [Example 49, {10-[(2′-Methoxy-2-methyl[1,1′-biphenyl]-4-yl)carbonyl]-10,11-dihydro-5H-pyrrolo[2,1-c][1,4]benzodiazepin-3-yl}(4-methyl-1-piperazinyl)methanone]
7		COc1cccc(-c2ccc(C(=O)N3Cc4ccc(C(=O)n5ccnc5)n4Cc4ccccc43)cc2C)c1 [Example 289, 1H-Imidazol-1-yl-{10-[(3′-methoxy-2-methyl[1,1′-biphenyl]-4-yl)carbonyl]-10,11-dihydro-5H-pyrrolo[2,1-c][1,4]benzodiazepin-3-yl}methanone]
17		Cc1ccccc1-c1ccc(C(=O)N2Cc3ccc(C(=O)N4CCN(C)CC4)n3Cc3ccccc32)cc1 [Example 52, {10-[(2′-Methyl[1,1′-biphenyl]-4-yl)carbonyl]-10,11-dihydro-5H-pyrrolo[2,1-c][1,4]benzodiazepin-3-yl}(4-methyl-1-piperazinyl)methanone]
15		COc1cc(C(=O)N2Cc3ccc(C(=O)N4CCN(CCN5CCOCC5)CC4)n3Cc3ccccc32)ccc1-n1c(C)ccc1C [Example 317, {10-[4-(2,5-Dimethyl-1H-pyrrol-1-yl)-3-methoxybenzoyl]-10,11-dihydro-5H-pyrrolo[2,1-c][1,4]benzodiazepin-3-yl}{4-[2-(4-morpholinyl)ethyl]-1-piperazinyl}methanone]
